Measurements: article PMC11928319 (Nature Plants, 2025)
Where no end group is shown, it is not given here.

Assay: Peptide quantification by mass spectrometry after incubation in cell-free supernatant of Rhodanobacter R179
Type: in vitro ADME
Conditions: axenic XVM2 medium, 1h, 1 µM AtPep1, NHS-acetate modified, LC-MS [M+2H]
Method: Elicitors were also supplemented into the medium prior to solidification at a final concentration of 1 µM. The flg22 ([…]) and AtPep1 ([…]) peptides were synthesized by EZbiolab. elf18^R179 (Ac-[…]) and elf18 (Ac-[…]) were synthesized by GenScript and EZbiolab, respectively. For inoculation with the bacterial supernatant, bacteria were cultivated overnight in XVM2 minimal medium (20 mM NaCl, 10 mM (NH4)2SO4, 5 mM MgSO4, 1 mM CaCl2, 0.16 mM KH2PO4, 0.32 mM K2HPO4, 0.01 mM FeSO4, 10 mM fructose, 10 mM sucrose, 0.03% Casamino acids, pH 6.7)[76] to a final concentration of OD600 = 0.4. Bacteria were pelleted by centrifugation (11,600 g, 2 min), and the supernatant was sterile-filtered using filter units with MF-Millipore membrane (0.22 µm; Millex). The supernatant was incubated in boiling water for 30 min for heat treatment. Then, 25 ml of 1× MS with 20 g l^−1 Bacto Agar was mixed with 25 ml of supernatant prior to medium solidification and poured into square petri dishes. Sterilized seeds were placed on solidified agar in square petri dishes and vertically incubated for 14 days.
Bacterial supernatants were prepared as described in ‘Agar-based cultivation of axenic plants and co-cultivation with bacteria, bacterial supernatants and elicitors’. Here, additionally, the peptides dRGF1 (DYSNPGHHP-Hyp-RHN) and PSY1 (D-Y(SO3H)-[…]-Hyp-Hyp-S) synthesized by Scilight Peptide were incubated for 1 h with 1 µM of peptides in a plant cultivation light chamber (day-light condition; see ‘Plant cultivation conditions’), and the samples were frozen at −20 °C until further processing. For the investigation of AtPep1 degradation, the AtPep1 peptide was first modified by acetylation (six to seven times). To this end, 100-µl aliquots of peptides were treated with 10 µl of NHS acetate solution (1 M NHS acetate in 50% ACN/PBS) and incubated for 30 min with shaking. The reaction was quenched by the addition of 100 µl of 100 mM Tris-HCl (pH 8.5) and incubated for 10 min. For comparison of the non-acetylated peptides with the above-described modified AtPep1 peptides, aliquots of the non-acetylated peptides were processed as described above, but without the modifying NHS reaction. To this end, 100-µl aliquots of the sample were mixed with 100 µl of PBS buffer (137 mM NaCl, 2.7 mM KCl, 10 mM Na2HPO4, 1.8 mM KH2PO4; pH 7.4). The samples were then further diluted with 100 µl of 100 mM Tris-HCl (pH 8.5) and incubated for 10 min. All samples were acidified with 5 µl of TFA and desalted using StageTips with C18 Empore disk membranes (3M)[109]. The samples were dried in a vacuum evaporator and dissolved in 10 µl of 2% ACN (0.1% TFA for analysis).
The samples were analysed using an EASY-nLC 1200 (Thermo Fisher) coupled to a QExactive Plus mass spectrometer (Thermo Fisher). Peptides were separated on 16-cm frit-less silica emitters (New Objective, 75 µm inner diameter), packed in-house with reversed-phase ReproSil-Pur C18 AQ 1.9 µm resin (Dr. Maisch). Peptides were loaded on the column and eluted for 50 min using a segmented linear gradient of 5% to 95% solvent B (0 min, 5% B; 0–5 min, 15% B; 5–35 min, 50% B; 35–45 min, 95% B; 45–50 min, 95% B) (solvent A: 0% ACN, 0.1% FA; solvent B: 80% ACN, 0.1% FA) at a flow rate of 300 nl min^−1. Mass spectra were acquired in data-dependent acquisition mode with a TOP10 method. Mass spectrometry spectra were acquired in the Orbitrap analyser with a mass range of 300–1,500 m/z at a resolution of 70,000 full width at half maximum (FWHM) and a target value of 3 × 10^6 ions. Precursors were selected with an isolation window of 1.3 m/z. Higher-energy collision dissociation (HCD) fragmentation was performed at a normalized collision energy of 25. Tandem mass spectrometry (MS/MS) spectra were acquired with a target value of 5 × 10^5 ions at a resolution of 17,500 FWHM, a maximum injection time of 85 ms and a fixed first mass of 100 m/z. […]

For ATKVKAKQRGKEKVSSGRPGQHN [AtPep1], the “Total_area MS1 of identified AtPep1 cleavage product (acetylated […])” value (replicate 2) was 0.00E+00 and the “Total_area MS1 of identified AtPep1 cleavage product (acetylated […])” value (replicate 3) was 0.00E+00.
